The values below come from PMC12457599, “Targeting Acinetobacter baumannii lipase by coniferous species through metabolomics supported approach” (Scientific Reports, 2025).

The test system of test [1] is Staphylococcus aureus lipases. More on the design: method as in PMID 17559400. As to conditions: cited from earlier work.
Another test relates to A. baumannii (AB5075). The test can be described thus: Growth curve assay.
Test [2] deals with A. baumannii strain (AB5075). The test can be described thus: Tetrazolium/formazan (TTC) assay, effective inhibitory concentration. It counts as cell-based, Acinetobacter baumannii.
For test [3], the system named is A. baumannii strain (AB5075). The experiment in a line: Broth microdilution MIC. As to conditions: Acinetobacter baumannii, 24 h. For orientation: In broth dilution the organism is exposed to a series of concentrations in liquid medium.

pIC50: −log10 of the molar value. Some results are limits rather than exact numbers.

As for `CC(C)=CCC/C(C)=C/CC/C(C)=C/CO` [Farnesol], the pIC50 in test [1] was 3.24.

Consider `CCCCCCCCCCC[C@@H](C[C@@H]1OC(=O)[C@H]1CCCCCC)OC(=O)[C@H](CC(C)C)NC=O` [Orlistat, orlistat], for which the “growth extent versus DMSO” value is “not” with A. baumannii (AB5075) (64 µg/mL); “significant reduction in growth extent” in the test with A. baumannii (AB5075) (128 µg/mL, mid-logarithmic and early stationary phases). The same molecule yielded an EIC in test [2] (TTC assay, lowest concentration preventing red color formation, tested 420–640 µg/mL) of 640 µg/mL. In test [2] (summary of MIC and EIC), the “direct antimicrobial activity against A. baumannii” value is on record as “minimal direct antimicrobial activity”. The MIC in test [3] was greater than 128 µg/mL.

Broadly, the pIC50 is the negative decadic logarithm of the IC50, by convention in mol/L. A word on the MIC: it is the lowest concentration that inhibits growth of the organism. High values mean a need for much substance, low ones inhibition by little substance.
